From ChEMBL document CHEMBL4346729, “The discovery of novel 3-aryl-indazole derivatives as peripherally restricted pan-Trk inhibitors for the treatment of pain” (Bioorg Med Chem Lett, 2019)
In brackets after ≈: the same amount, converted by molar mass. Activity calls are given as the source filed them. The rule behind the calls is not given here.

Columns and labels:
[1] = Intrinsic clearance in human liver microsomes; format: ADME, Microsome; settings: read-out: CLH
[2] = Apparent permeability from apical to basolateral side in MDCK cells at 50 umol/L at pH 7.4 incubated for 30 mins by LC-MS/MS analysis; format: ADME, cell-based, Canis lupus familiaris; settings: dog
[3] = Solubility of test compound; format: physicochemical
Rattus norvegicus = assay: Antinociceptive activity in CFA induced thermal hypersensitivity Sprague-Dawley rat model assessed as increase in paw withdrawal latency at 100 mg/kg, po after 1 hr; format: functional, organism-based
[4] = Apparent permeability from apical to basolateral side in MDCK cells at 50 umol/L at pH 6.5 incubated for 30 mins by LC-MS/MS analysis; format: ADME, cell-based, Canis lupus familiaris; settings: dog

| CLint scaled [1] [mL/min/kg] | Papp A→B at 0.5 h, 50 µM [2] [×10⁻⁶ cm/s] | solubility [3] [µM] | Papp A→B at 0.5 h, 50 µM [4] [×10⁻⁶ cm/s] | Structure (SMILES) | Activity (Rattus norvegicus) |
| --- | --- | --- | --- | --- | --- |
| 69.5 to 70 | 1.2 |  |  | CS(=O)(=O)Nc1ccccc1CNc1ccc2[nH]nc(-c3ccc(N4CCNCC4)nc3)c2c1 |  |
| 833 |  |  |  | COc1cccc(-c2n[nH]c3ccc(NCc4ccccc4NS(C)(=O)=O)cc23)n1 |  |
| 793 | 61.5 | 23 (≈ 9.12 µg/mL) |  | CS(=O)(=O)c1ccc(F)cc1CNc1ccc2[nH]nc(-c3cccnc3)c2c1 |  |
| 443 | 73.2 | 15.2 (≈ 6.03 µg/mL) |  | CS(=O)(=O)c1ccc(F)cc1CNc1ccc2[nH]nc(-c3ccccn3)c2c1 |  |
| 12 | 13 |  |  | c1ccc(CNc2ccc3[nH]nc(-c4ccc(N5CCNCC5)nc4)c3c2)cc1 |  |
| 184 | 0.3 |  |  | CS(=O)(=O)Nc1ccccc1CNc1ccc2[nH]nc(-c3ccc(NC4CCNCC4)nc3)c2c1 |  |
| 694 | 9.6 |  |  | c1ccc(COc2ccc3[nH]nc(-c4ccc(N5CCNCC5)nc4)c3c2)cc1 |  |
| 217 |  |  |  | COc1cncc(-c2n[nH]c3ccc(NCc4ccccc4NS(C)(=O)=O)cc23)c1 |  |
| 137 | 34 | 80.1 (≈ 32 µg/mL) |  | Cn1ccc(-c2n[nH]c3ccc(NCc4cc(F)ccc4S(C)(=O)=O)cc23)n1 |  |
|  |  |  |  | CC(C)Cc1ccc(C(C)C(=O)O)cc1 (stereo unspecified) | Active |
| 1740 | 11 |  |  | CC(C)(Nc1ccc2[nH]nc(-c3ccc(N4CCNCC4)nc3)c2c1)c1ccccc1 |  |
| 176 to 178 | 0.3 to 0.4 | 38.7 (≈ 18.6 µg/mL) | 0.3 | CS(=O)(=O)c1ccc(F)cc1CNc1ccc2[nH]nc(-c3ccc(N4CCNCC4)nc3)c2c1 |  |
| 359 |  |  |  | COc1ccc(-c2n[nH]c3ccc(NCc4ccccc4NS(C)(=O)=O)cc23)cn1 |  |
| 323 | 0.3 |  |  | CS(=O)(=O)Nc1ccccc1CNc1ccc2[nH]nc(-c3ccc(OC4CCNCC4)nc3)c2c1 |  |
| 74 | 12.5 |  | 0.4 | CS(=O)(=O)c1ccccc1CNc1ccc2[nH]nc(-c3ccc(N4CCNCC4)nc3)c2c1 |  |
| 2730 | 3.1 |  |  | c1ccc(CCc2ccc3[nH]nc(-c4ccc(N5CCNCC5)nc4)c3c2)cc1 |  |
| 417 | 7.3 |  |  | CN(Cc1ccccc1)c1ccc2[nH]nc(-c3ccc(N4CCNCC4)nc3)c2c1 |  |
